For data set [1], the target named is T1, EGFR (Homo sapiens, UniProt P00533).
T1 construct: purchased Reaction Biology Corporation
The data set can be described thus: RTK in vitro enzymatic assay. The data set is classed as biochemical. Conditions: 20 μM ATP.

The target of data set [2] is T2, ALK G1202R (Homo sapiens, UniProt Q9UM73, G1202R).
T2 construct: purchased Reaction Biology Corporation
The data set can be described thus: ALK mutant in vitro enzymatic assay. The format is biochemical. Conditions: 20 μM ATP.

In data set [3] the target is T3, ALK (Homo sapiens, UniProt Q9UM73).
T3 construct: purchased Reaction Biology Corporation
T3 sequence (Q9UM73 19-1620): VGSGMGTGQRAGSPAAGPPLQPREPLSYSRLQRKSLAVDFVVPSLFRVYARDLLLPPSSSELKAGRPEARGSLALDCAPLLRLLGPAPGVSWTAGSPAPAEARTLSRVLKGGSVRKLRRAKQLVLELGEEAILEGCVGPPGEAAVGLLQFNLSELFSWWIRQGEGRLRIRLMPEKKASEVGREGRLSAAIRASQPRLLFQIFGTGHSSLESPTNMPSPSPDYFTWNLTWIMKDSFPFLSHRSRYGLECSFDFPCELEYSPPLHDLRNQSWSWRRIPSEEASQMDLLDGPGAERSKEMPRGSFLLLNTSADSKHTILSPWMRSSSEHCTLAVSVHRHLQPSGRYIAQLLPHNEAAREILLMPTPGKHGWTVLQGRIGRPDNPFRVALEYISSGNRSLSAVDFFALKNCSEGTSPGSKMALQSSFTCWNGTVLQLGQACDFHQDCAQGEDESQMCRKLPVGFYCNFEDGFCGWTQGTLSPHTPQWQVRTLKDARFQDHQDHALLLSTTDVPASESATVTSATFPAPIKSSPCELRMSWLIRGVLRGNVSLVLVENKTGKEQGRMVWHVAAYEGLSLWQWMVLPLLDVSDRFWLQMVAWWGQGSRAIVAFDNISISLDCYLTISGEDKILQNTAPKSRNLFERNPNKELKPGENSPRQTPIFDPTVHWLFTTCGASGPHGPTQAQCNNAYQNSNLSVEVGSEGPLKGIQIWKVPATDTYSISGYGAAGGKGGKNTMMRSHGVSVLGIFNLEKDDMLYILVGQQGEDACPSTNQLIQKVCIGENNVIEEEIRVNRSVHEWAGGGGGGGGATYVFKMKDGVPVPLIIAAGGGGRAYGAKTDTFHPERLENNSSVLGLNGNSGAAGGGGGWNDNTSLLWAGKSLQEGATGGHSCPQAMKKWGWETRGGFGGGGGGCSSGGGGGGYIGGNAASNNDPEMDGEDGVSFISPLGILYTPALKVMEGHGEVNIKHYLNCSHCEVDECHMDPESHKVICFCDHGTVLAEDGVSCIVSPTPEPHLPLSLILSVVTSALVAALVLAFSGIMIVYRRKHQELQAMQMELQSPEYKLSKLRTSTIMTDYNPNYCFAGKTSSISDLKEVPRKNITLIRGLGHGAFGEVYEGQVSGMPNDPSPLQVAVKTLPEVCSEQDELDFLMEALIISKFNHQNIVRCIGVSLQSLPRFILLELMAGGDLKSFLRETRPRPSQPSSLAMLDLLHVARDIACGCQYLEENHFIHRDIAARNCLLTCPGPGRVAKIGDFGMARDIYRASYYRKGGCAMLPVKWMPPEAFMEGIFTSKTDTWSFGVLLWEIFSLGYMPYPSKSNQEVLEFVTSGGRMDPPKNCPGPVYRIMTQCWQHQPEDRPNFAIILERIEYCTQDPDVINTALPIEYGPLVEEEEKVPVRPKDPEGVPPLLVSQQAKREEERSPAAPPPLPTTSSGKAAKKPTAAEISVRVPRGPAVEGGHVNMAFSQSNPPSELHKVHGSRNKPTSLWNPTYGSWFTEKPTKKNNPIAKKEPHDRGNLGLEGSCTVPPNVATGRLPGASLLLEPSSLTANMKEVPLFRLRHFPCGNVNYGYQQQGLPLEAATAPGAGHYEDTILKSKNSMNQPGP
The data set can be described thus: ALK in vitro enzymatic assay (radioisotope P81 filter-binding, Reaction Biology). The data set is classed as biochemical. The settings on record: 20 μM ATP; ten-dose IC50 mode, duplicate, average.

In data set [4] the test system is human A549 tumour xenografts. The data set can be described thus: Human A549 tumour xenograft model. The format is in vivo. How it is done: […]. Xenografts were implanted by subcutaneous injection of A549 cells and then treatment with various dosages of 3b (0, 5, 10, 20 mg/kg by intraperitoneal injection once daily for 21 days) was initiated when tumour size was 10–20 mm^3. […] Moreover, tumour suppression continued for an additional 10 days after treatment was suspended.
The procedure for establishing tumour xenografts and the dosing of 3b were carried out in accordance with the National Taiwan University College of Medicine Laboratory Animal Centre ([…]) care and use committee. Female nude mice (BALB/cAnN.Cg-Foxn1nu/CrlNarl, 6–8 weeks old) were purchased from the National Laboratory Animal Centre (Taiwan). Mice were implanted subcutaneously in the right flank with 1 × 10^7 A549 cells (human NSCLC, in 1:1 PBS/Geltrex, 200 μL). Treatments were initiated when tumours were 10–20 mm^3 and continued for 21 consecutive days. Mice were randomly assigned to cohorts (n = 5 per group). Compound 3b (10 mg/kg) or vehicle (PBS + 5% DMSO + 10% Pharmasolve) was administered once daily (qd) via intraperitoneal (i.p.) injection. Tumour volume and body weight were assessed daily for 31 days from initiation of treatment. Calliper measurements of tumours were converted to mean tumour volume using the formula: 0.5 × (length × width[2]).
In general terms: A xenograft is tissue or cells of one species grown in another, often human tumour cells in immunodeficient mice.

The target of data set [5] is T4, hERG (Homo sapiens, UniProt Q12809).
T4 construct: purchased
T4 sequence (Q12809 whole entry): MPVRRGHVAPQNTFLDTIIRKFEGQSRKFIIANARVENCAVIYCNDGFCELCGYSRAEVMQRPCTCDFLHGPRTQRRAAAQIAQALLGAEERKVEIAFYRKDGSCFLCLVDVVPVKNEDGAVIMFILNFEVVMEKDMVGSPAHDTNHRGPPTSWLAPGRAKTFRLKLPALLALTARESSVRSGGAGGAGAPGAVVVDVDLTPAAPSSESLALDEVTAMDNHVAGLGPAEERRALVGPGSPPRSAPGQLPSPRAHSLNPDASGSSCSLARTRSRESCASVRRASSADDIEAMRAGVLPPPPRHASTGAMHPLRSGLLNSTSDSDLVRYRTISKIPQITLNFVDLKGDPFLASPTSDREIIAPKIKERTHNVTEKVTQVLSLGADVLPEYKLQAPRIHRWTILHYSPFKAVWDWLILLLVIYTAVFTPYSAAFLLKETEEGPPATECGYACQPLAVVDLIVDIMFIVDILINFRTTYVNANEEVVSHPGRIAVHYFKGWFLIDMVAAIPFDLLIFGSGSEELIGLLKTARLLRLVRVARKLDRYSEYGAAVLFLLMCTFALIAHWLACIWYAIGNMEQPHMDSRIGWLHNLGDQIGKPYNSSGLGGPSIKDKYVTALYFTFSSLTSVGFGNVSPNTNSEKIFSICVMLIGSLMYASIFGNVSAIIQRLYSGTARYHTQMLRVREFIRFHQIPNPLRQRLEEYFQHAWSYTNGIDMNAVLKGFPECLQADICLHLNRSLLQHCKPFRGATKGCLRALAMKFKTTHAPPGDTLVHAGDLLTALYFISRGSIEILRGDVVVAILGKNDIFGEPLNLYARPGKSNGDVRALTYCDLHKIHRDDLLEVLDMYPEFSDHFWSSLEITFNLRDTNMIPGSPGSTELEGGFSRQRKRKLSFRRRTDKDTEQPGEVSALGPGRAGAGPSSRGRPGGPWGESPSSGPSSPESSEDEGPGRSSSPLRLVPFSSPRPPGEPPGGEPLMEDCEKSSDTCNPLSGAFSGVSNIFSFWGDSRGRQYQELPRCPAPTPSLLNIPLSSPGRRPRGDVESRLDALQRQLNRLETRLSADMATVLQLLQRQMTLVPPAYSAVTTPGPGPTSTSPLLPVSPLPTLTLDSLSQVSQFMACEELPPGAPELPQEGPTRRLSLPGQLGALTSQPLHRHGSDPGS
Put plainly: hERG binding competition assay (Predictor hERG Tracer Red). Conditions: binding competition with fluorescent tracer.

The target of data set [6] is T5, CYP2C9 (Homo sapiens, UniProt P11712).
T5 construct: purchased Reaction Biology Corporation; host or cells: CYP cDNA baculovirus expression systems
T5 sequence (P11712 whole entry): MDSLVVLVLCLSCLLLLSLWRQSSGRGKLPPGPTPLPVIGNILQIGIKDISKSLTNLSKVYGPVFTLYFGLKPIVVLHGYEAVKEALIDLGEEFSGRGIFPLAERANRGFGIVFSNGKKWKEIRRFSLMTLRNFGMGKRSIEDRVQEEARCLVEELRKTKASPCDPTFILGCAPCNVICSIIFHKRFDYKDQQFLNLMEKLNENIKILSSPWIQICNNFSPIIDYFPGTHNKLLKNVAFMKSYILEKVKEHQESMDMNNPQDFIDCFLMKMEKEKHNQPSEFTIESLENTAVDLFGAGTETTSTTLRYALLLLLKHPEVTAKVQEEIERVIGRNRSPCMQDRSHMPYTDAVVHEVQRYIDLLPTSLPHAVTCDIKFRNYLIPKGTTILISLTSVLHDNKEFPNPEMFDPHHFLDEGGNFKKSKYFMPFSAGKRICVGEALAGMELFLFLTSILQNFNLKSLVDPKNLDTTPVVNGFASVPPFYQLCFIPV
Put plainly: CYP450 inhibition assay. The data set is classed as in vitro ADME. The settings on record: human recombinant enzyme.

The subject of data set [7] is acetylation level of α-tubulin, a substrate of HDAC6. Put plainly: Western blot of acetylated α-tubulin in H2228 cells. Conditions: 6 h, 3b 2 µM. The data set is classed as cell-based, human. The text has this:
(§1) Figure 4. Effect of test compounds on H2228 cells. […] (A) Western blots of phosphorylated tyrosine residue 1640 on ALK as well as acetylated (Ac) α-tubulin and histone H3 with their corresponding total proteins for normalisation. GAPDH was used as a loading control. (B) Quantification of western blotting results using Image J. Error bars indicate ± S.D.E. *p-Value ≤ 0.05, **p-value ≤ 0.01, ***p-value ≤ 0.001.
Treated cells were washed three times with ice-cold phosphate-buffered saline and lysed in lysis buffer containing 100 mM Tris-HCl, 12 mM sodium deoxycholate, 12 mM sodium lauroylsarcosinate, and protease inhibitor cocktail (BioTools). Cells were heated in lysis buffer at 95 °C for 5 min and then the cell membrane was broken up by sonication (Bioruptor). Cellular debris and unbroken cells were removed by centrifugation (12,500 × g for 30 min, 4 °C). Protein concentration was determined using the bicinchoninic acid assay (Thermo). Cell extracts (20 μg) were resolved by 12% sodium dodecyl sulfate-polyacrylamide gel electrophoresis (SDS-PAGE), transferred to PVDF membranes, and probed separately with antibodies for Ac-histone H3, Ac-α-tubulin, histone H3, α-tubulin, HDAC1, HDAC6, HDAC8 and GAPDH. […] Antibody signals were detected using an enhanced chemiluminescence system.

The subject of data set [8] is H2228. Put plainly: SRB antiproliferation assay. The data set is classed as cell-based. The settings on record: Homo sapiens, NCI-H2228, 48 h, ALK-addicted cells, read-out: Antiproliferative activity (IC50) H2228.
In data set [9] the test system is phosphorylation level of Y1604 on ALK. The data set can be described thus: Western blot of ALK phosphorylation in H2228 cells. The format is cell-based, human. The settings on record: 6 h, 3b 2 µM, 3c 4 µM.
Description: as §1
Treated cells were washed three times with ice-cold phosphate-buffered saline and lysed in lysis buffer containing 100 mM Tris-HCl, 12 mM sodium deoxycholate, 12 mM sodium lauroylsarcosinate, and protease inhibitor cocktail (BioTools). Cells were heated in lysis buffer at 95 °C for 5 min and then the cell membrane was broken up by sonication (Bioruptor). Cellular debris and unbroken cells were removed by centrifugation (12,500 × g for 30 min, 4 °C). Protein concentration was determined using the bicinchoninic acid assay (Thermo). Cell extracts (20 μg) were resolved by 12% sodium dodecyl sulfate-polyacrylamide gel electrophoresis (SDS-PAGE), transferred to PVDF membranes, and probed separately with antibodies for Ac-histone H3, Ac-α-tubulin, histone H3, α-tubulin, HDAC1, HDAC6, HDAC8 and GAPDH. The antibodies of GAPDH, HDAC1, and HDAC8 were purchased from ABclonal and all other antibodies were from Cell Signalling Technology. Antibody signals were detected using an enhanced chemiluminescence system.

For data set [10], the target named is T6, ALK F1174L (Homo sapiens, UniProt Q9UM73, F1174L).
T6 construct: purchased Reaction Biology Corporation
T6 sequence (Q9UM73 19-1620 F1174L): as the sequence (Q9UM73 19-1620) above, with F1156L counted along it
The data set can be described thus: ALK mutant in vitro enzymatic assay. The format is biochemical. Conditions: 20 μM ATP.

Data set [11] has as its target T7, HDAC8 (Homo sapiens, UniProt Q9BY41).
T7 construct: purchased Reaction Biology Corporation; host or cells: baculovirus expression system in SF9 cells
T7 sequence (Q9BY41 1-377): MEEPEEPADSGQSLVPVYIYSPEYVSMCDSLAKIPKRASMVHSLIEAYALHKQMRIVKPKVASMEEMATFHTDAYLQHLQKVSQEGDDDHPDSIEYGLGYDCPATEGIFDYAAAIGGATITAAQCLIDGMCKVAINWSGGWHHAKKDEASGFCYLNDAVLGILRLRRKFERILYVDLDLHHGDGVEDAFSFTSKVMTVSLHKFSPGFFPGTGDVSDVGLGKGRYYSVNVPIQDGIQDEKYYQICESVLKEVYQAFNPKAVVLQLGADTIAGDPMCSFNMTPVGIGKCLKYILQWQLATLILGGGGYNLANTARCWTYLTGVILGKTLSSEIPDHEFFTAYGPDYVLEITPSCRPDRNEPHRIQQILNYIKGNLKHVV
The data set can be described thus: HDAC inhibition assay (fluorogenic diacylpeptide, Reaction Biology). The data set is classed as biochemical. Conditions: tested once, ten-dose starting at 30 µM.

Data set [12] concerns the target T8, JAK2 (Homo sapiens, UniProt O60674).
T8 construct: purchased Reaction Biology Corporation
Put plainly: RTK in vitro enzymatic assay. The format is biochemical. The settings on record: 20 μM ATP.

For data set [13], the target named is T9, ALK L1196M (Homo sapiens, UniProt Q9UM73, L1196M).
T9 construct: purchased Reaction Biology Corporation
T9 sequence (Q9UM73 19-1620 L1196M): as the sequence (Q9UM73 19-1620) above, with L1178M counted along it
Put plainly: ALK mutant in vitro enzymatic assay. The data set is classed as biochemical. The settings on record: 20 μM ATP.

Data set [14] has as its system MCF7. Put plainly: SRB antiproliferation assay. The data set is classed as cell-based. Conditions: Homo sapiens, 48 h, read-out: Antiproliferative activity (IC50) MCF7. Background: The SRB assay estimates cell density from bound dye.
The target of data set [15] is T10, CYP2C19 (Homo sapiens, UniProt P33261).
T10 construct: purchased Reaction Biology Corporation; host or cells: CYP cDNA baculovirus expression systems
T10 sequence (P33261 whole entry): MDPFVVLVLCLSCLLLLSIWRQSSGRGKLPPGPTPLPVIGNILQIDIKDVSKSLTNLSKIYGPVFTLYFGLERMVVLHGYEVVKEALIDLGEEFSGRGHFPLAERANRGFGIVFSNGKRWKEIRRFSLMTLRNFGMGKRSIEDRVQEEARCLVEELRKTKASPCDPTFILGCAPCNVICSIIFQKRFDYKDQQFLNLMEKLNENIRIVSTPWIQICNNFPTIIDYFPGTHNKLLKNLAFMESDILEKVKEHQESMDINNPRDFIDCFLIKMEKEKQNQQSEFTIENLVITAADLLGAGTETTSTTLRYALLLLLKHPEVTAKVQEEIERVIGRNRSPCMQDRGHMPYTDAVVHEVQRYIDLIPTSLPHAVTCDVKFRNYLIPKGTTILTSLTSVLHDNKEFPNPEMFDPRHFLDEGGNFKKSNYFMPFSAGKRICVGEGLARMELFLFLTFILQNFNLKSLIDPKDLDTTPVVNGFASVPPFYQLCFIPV
The data set can be described thus: CYP450 inhibition assay. Conditions: human recombinant enzyme. The data set is classed as in vitro ADME. As for the experimental part:
Assays were performed by Reaction Biology Corporation. […] CYP assays used human recombinant CYP1A2, CYP2C9, CYP2C19, CYP2D6, and CYP3A4 expressed in CYP cDNA baculovirus expression systems. […] Substrates used were 3-cyano-7-ethoxycoumarin for CYP1A2, 2C19, and 2D6; Vivid OOMR Substrate for CYP2C9; and Vivid BOMR Substrate for CYP3A4. hERG inhibition assays involved a binding competition between the tested compounds and a fluorescently labelled compound tracer (Predictor hERG Tracer Red) for membrane-bound hERG (Predictor hERG Membrane). E-4031 served as the positive control.

“Also recorded” adds a separate entry of the source.

T1 sequence (P00533 25-1210): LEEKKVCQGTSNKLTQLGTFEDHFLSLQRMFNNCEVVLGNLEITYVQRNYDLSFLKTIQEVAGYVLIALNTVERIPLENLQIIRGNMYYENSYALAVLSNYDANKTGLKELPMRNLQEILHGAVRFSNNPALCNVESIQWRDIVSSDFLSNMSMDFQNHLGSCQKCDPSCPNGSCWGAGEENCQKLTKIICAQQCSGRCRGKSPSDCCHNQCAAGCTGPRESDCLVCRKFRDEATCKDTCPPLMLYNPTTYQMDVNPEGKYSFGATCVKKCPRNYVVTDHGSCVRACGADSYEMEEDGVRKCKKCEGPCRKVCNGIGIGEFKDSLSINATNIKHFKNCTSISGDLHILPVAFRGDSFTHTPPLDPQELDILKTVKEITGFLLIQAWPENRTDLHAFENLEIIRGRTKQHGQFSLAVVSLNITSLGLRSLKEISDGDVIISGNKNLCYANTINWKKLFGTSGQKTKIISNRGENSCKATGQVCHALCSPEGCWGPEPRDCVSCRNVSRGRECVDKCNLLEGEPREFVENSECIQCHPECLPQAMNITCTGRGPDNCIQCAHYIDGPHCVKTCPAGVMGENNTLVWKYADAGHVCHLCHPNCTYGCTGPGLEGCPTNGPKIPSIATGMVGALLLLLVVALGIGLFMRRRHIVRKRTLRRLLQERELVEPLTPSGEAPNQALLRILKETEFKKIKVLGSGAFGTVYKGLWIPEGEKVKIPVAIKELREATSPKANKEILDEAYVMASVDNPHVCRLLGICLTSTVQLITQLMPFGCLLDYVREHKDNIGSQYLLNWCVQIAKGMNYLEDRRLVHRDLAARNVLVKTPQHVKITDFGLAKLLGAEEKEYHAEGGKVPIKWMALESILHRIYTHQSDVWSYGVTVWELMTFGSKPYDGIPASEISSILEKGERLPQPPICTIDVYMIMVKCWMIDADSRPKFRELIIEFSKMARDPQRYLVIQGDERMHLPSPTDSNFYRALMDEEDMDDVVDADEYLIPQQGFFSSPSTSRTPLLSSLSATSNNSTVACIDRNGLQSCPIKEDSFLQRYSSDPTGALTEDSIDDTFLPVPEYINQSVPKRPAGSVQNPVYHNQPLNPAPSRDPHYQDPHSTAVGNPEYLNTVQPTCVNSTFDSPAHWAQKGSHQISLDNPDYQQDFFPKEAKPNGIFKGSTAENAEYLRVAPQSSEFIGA
T2 sequence (Q9UM73 19-1620 G1202R): as the sequence (Q9UM73 19-1620) above, with G1184R counted along it

As a reminder, the IC50 is the concentration that gives 50% inhibition. On to `CC(C)NC(=O)C1CCC(n2c(=NC(=O)c3ccccc3)[nH]c3cc(C=CC(=O)NO)ccc32)CC1` [Compound 3b, (E)-N-(5-((E)-3-(Hydroxyamino)-3-oxoprop-1-en-1-yl)-1-((1S,4S)-4-(isopropylcarbamoyl)cyclohexyl)-1H-benzo[d]imidazol-2(3H)-ylidene)benzamide], for which the IC50 is over 10000 nM in data set [1]; 51 nM in data set [2]; 16 nM in data set [3]; over 10000 nM in data set [5]; 2650 nM in [6]; 440 ± 60 nM in data set [8]. Further, the IC50 in data set [10] was 59 nM; in data set [11], 1690 nM; in data set [12], over 10000 nM; in data set [13] it was 4.9 nM; in data set [14], 550 ± 10 nM; in data set [15], 7860 nM. For the same compound, in [4] (5 mg/kg i.p. once daily for 21 days), the “effect on tumour volume” value is recorded as “no significant effect”. Besides, the “decrease in mean tumour volume” value in [4] (10 mg/kg i.p. once daily for 21 days, day 21 of treatment) was found to be 68%; in data set [4] (10 mg/kg i.p. once daily for 21 days, day 31 (10 days after treatment suspended)) it was 80%; in [4] (20 mg/kg i.p. once daily for 21 days, day 21 of treatment), 85%; in [4] (20 mg/kg i.p. once daily for 21 days, day 31 (10 days after treatment suspended)) it was 86%. The mean body weight entry in data set [4] (5, 10, 20 mg/kg i.p. once daily for 21 days, any treatment group) is recorded as “negligible effect; also recorded: not significantly affected”. Besides, the “IC50 hERG” value in [5] is recorded as “no inhibitory affect”. Besides, the “acetylation level of α-tubulin” value in data set [7] is “obviously elevated”. In addition, the “phosphorylation level of Y1604 on ALK” value in [9] is listed as “significantly decreased”.

The record behind these values is PMC10930102 (Journal of Enzyme Inhibition and Medicinal Chemistry, 2024).
